Assays:
[1] = target: T1, C-X-C chemokine receptor type 3 (Homo sapiens, UniProt P49682); test: Antagonist activity at CXCR3 (unknown origin) in human T cells in venous blood assessed as receptor internalization incubated for 30 mins in presence of CXCL10 by flow cytometric analysis; type: cell-based, T cell
T1 sequence (P49682 whole entry): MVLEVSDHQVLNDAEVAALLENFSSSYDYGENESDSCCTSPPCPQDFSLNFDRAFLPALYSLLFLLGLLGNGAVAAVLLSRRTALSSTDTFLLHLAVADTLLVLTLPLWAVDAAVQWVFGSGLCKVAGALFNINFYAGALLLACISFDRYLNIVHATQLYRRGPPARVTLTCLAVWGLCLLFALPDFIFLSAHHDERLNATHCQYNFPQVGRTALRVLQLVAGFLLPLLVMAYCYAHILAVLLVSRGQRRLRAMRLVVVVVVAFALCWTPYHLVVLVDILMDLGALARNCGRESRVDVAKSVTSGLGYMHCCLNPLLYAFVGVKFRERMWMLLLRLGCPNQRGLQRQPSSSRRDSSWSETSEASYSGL

[2] = target: Voltage-gated inwardly rectifying potassium channel KCNH2 (Homo sapiens, UniProt Q12809); test: Inhibition of human ERG stably expressed in CHO cells at -80 mV holding voltage by automated QPatch electrophysiological assay; type: toxicity, cell-based
Chain of Voltage-gated inwardly rectifying potassium channel KCNH2 (Q12809 whole entry): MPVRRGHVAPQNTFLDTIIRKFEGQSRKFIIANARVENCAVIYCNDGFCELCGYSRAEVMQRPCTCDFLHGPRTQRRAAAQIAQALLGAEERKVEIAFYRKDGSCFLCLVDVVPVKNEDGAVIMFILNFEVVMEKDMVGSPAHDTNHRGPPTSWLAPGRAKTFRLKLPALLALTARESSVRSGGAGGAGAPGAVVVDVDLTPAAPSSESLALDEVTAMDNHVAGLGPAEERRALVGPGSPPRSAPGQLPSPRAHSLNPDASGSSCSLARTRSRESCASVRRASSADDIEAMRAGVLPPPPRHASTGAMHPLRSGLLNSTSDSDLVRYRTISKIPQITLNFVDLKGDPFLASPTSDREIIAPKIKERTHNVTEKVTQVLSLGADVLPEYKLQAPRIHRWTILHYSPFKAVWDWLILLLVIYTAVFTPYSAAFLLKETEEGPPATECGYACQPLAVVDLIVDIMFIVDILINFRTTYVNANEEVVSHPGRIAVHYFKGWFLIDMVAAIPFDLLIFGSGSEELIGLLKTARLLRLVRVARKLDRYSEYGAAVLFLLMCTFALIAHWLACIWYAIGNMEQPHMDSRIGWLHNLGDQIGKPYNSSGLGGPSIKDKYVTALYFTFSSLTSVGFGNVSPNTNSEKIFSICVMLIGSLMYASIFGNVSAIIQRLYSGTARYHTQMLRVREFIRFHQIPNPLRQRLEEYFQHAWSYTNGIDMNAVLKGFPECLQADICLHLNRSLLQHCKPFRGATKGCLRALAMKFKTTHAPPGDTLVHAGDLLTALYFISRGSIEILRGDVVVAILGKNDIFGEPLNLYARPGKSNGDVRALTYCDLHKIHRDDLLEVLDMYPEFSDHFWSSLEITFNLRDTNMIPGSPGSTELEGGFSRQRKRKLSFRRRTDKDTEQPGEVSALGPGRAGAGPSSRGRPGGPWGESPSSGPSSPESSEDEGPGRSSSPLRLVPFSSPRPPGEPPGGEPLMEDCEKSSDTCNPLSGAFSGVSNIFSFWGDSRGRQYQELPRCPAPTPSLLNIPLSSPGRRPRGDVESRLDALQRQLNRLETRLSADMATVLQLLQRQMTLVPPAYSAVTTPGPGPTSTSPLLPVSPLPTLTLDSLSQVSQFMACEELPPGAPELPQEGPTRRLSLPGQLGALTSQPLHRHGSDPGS

[3] = Metabolic stability in human liver microsomes assessed as intrinsic clearance at 1 uM and measured upto 15 mins in presence of NADPH regenerating system by LC-MS/MS analysis; type: ADME, Microsome; conditions: read-out: CLH
CYP2D6 = CYP2D6 (Homo sapiens, UniProt P10635); test: (§1) […] recombinant human CYP2D6 mediated drug metabolism in human liver microsomes assessed as intrinsic clearance at 1 uM incubated for 45 mins in presence of NADPH regenerating system by LC-MS/MS analysis; type: ADME, Microsome; conditions: recombinant human CYP2D6, read-out: CLH
Chain of CYP2D6 (P10635 whole entry): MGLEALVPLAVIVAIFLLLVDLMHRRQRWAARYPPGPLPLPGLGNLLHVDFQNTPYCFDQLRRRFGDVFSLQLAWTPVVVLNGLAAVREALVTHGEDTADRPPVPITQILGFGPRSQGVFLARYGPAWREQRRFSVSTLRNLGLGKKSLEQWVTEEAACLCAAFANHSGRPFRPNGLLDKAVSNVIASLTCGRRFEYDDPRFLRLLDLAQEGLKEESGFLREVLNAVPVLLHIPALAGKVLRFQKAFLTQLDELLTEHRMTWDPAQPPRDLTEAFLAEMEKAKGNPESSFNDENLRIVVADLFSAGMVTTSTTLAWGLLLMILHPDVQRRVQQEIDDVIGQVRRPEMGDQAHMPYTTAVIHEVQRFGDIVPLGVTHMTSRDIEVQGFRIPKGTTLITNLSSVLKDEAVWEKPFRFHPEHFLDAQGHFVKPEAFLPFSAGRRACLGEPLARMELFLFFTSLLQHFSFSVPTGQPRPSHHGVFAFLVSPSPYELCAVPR

CYP3A4 = CYP3A4 (Homo sapiens, UniProt P08684); test: […] recombinant human CYP3A4 mediated drug metabolism in human liver microsomes assessed as intrinsic clearance at 1 uM incubated for 45 mins in presence of NADPH regenerating system by LC-MS/MS analysis; type: ADME, Microsome; conditions: read-out: CLH
Chain of CYP3A4 (P08684 whole entry): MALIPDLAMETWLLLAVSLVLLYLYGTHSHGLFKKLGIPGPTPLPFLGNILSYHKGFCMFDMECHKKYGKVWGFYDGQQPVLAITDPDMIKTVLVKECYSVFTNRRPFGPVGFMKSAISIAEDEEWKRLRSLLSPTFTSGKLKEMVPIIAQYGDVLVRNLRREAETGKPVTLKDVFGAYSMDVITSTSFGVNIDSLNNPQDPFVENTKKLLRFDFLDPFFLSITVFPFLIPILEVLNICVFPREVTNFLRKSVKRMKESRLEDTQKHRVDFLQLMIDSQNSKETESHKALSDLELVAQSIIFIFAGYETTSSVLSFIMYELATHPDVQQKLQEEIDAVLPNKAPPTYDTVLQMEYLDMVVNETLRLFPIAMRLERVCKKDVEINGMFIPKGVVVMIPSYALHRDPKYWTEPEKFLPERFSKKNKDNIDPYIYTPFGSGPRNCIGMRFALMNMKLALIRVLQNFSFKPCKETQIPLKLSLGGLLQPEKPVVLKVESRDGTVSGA

[4] = Metabolic stability in dog liver microsomes assessed as intrinsic clearance at 1 uM and measured upto 15 mins in presence of NADPH regenerating system by LC-MS/MS analysis; type: ADME, Canis lupus familiaris, Microsome; conditions: read-out: CLH
[5] = Protein binding in human plasma assessed as fraction unbound at 1 uM incubated for 6 hrs by rapid equilibrium dialysis based LC-MS/MS analysis; type: ADME, cell-free
[6] = Metabolic stability in dog hepatocytes assessed as intrinsic clearance per 10^6 cells at 1 uM by LC-MS/MS analysis; type: ADME, cell-based, Canis lupus familiaris, Hepatocyte
[7] = Protein binding in dog plasma assessed as fraction unbound at 1 uM incubated for 6 hrs by rapid equilibrium dialysis based LC-MS/MS analysis; type: ADME, cell-free, Canis lupus familiaris
[8] = Drug excretion in urine of Wistar rat assessed as unchanged drug at 3 mg/kg, iv; type: ADME, organism-based; conditions: read-out: Drug excretion
[9] = Metabolic stability in rat hepatocytes assessed as intrinsic clearance per 10^6 cells at 1 uM by LC-MS/MS analysis; type: ADME, cell-based, Hepatocyte
[10] = Metabolic stability in rat liver microsomes assessed as intrinsic clearance at 1 uM and measured upto 15 mins in presence of NADPH regenerating system by LC-MS/MS analysis; type: ADME, Microsome; conditions: read-out: CLH
[11] = Total clearance in Wistar rat plasma at 0.5 mg/kg, iv; type: ADME, organism-based
[12] = Unbound clearance in Beagle dog plasma at 1 mg/kg, iv; type: ADME, organism-based, Canis lupus familiaris; conditions: in vivo
[13] = Protein binding in rat plasma assessed as fraction unbound at 1 uM incubated for 6 hrs by rapid equilibrium dialysis based LC-MS/MS analysis; type: ADME, cell-free
[14] = Total clearance in Beagle dog plasma at 1 mg/kg, iv; type: ADME, organism-based, Canis lupus familiaris
[15] = Lipophilicity, log D of compound; type: physicochemical; conditions: octanol/water
[16] = Unbound clearance in Wistar rat plasma at 0.5 mg/kg, iv; type: ADME, organism-based; conditions: in vivo
[17] = Metabolic stability in human hepatocytes assessed as intrinsic clearance per 10^6 cells at 1 uM by LC-MS/MS analysis; type: ADME, cell-based, Hepatocyte
[18] = Clearance in Wistar rat at 2 mg/kg,po; type: ADME, organism-based; conditions: in vivo
[19] = Oral bioavailability in Wistar rat at 2 mg/kg; type: ADME, organism-based; conditions: in vivo
[20] = Oral bioavailability in Beagle dog at 2 mg/kg; type: ADME, organism-based, Canis lupus familiaris; conditions: in vivo
[21] = Drug excretion in urine of Wistar rat assessed as unchanged drug at 0.5 mg/kg, iv; type: ADME, organism-based; conditions: read-out: Drug excretion
Cytochrome P450 2D6 = Cytochrome P450 2D6 (Homo sapiens, UniProt P10635); test: as §1; type: ADME, Microsome; conditions: microsomes, 0.75 h, 1 µM
Chain of Cytochrome P450 2D6 (P10635 whole entry): as the sequence (P10635 whole entry) above

SMILES	IC50 [1] [µM]	microsomal CLint at 1 µM [3] [µL/min/mg]	IC50 [2] [µM]	other results
CC(O)c1ncn(CC(=O)N2CCN(c3sc(C(F)(F)F)nc3-c3cnc(C(F)(F)F)nc3)C[C@H]2C)n1 (stereo partly drawn)	0.356	–	> 60	–
COCc1ncn(CC(=O)N2CCN(c3sc(C(F)(F)F)nc3-c3cnc(C(F)(F)F)nc3)C[C@H]2C)n1	0.44	–	18	–
CC(C)c1ncn(CC(=O)N2CCN(c3sc(C(F)(F)F)nc3-c3cnc(C(F)(F)F)nc3)C[C@H]2CO)n1	0.225	33	29	microsomal CLint at 1 µM (CYP2D6): 0.13 µL/min/mg; microsomal CLint at 1 µM (CYP3A4): 1.2 µL/min/mg
CC(C)c1ncn(CC(=O)N2CCN(c3sc(C(F)(F)F)nc3-c3cnc(C(F)(F)F)nc3)C[C@@H]2CO)n1	0.161	27	17	–
CCc1ncn(CC(=O)N2CCN(c3sc(C(F)(F)F)nc3-c3cnc(C(F)(F)F)nc3)C[C@@H]2CCO)n1	0.265	17	27	–
CCc1ncn(CC(=O)N2CCN(c3sc(C(F)(F)F)nc3-c3cnc(C(F)(F)F)nc3)C[C@H]2CO)n1	0.208	< 10	52	logD [15]: 2.6
CC(C)c1ncn(CC(=O)N2CCN(c3sc(C(F)(F)F)nc3-c3cnc(C(F)(F)F)nc3)C[C@@H]2CCO)n1	0.165	22	19	microsomal CLint at 1 µM (CYP2D6): 0.28 µL/min/mg; microsomal CLint at 1 µM (CYP3A4): 1.9 µL/min/mg
C[C@@H]1CN(c2sc(C(F)(F)F)nc2-c2cnc(C(F)(F)F)nc2)CCN1C(=O)Cn1cnc(C(N)=O)n1	2.15	–	> 60	–
C[C@@H]1CN(c2sc(C(F)(F)F)nc2-c2cnc(C(F)(F)F)nc2)CCN1C(=O)Cn1cnc(C(F)(F)F)n1	0.191	–	3.9	–
C[C@@H]1CN(c2sc(C(F)(F)F)nc2-c2cnc(C(F)(F)F)nc2)CCN1C(=O)Cn1cnc(C#N)n1	1.32	–	2.6	–
Cc1ncn(CC(=O)N2CCN(c3sc(C(F)(F)F)nc3-c3cnc(C(F)(F)F)nc3)C[C@H]2CO)n1	0.167	< 10	> 60	–
Cc1ncn(CC(=O)N2CCN(c3sc(C(F)(F)F)nc3-c3cnc(C(F)(F)F)nc3)C[C@H]2C)n1	0.144	–	17	logD [15]: 2.7
Cc1ncn(CC(=O)N2CCN(c3sc(C(F)(F)F)nc3-c3cnc(C(F)(F)F)nc3)C[C@@H]2CCO)n1	0.643	< 10	> 60	–
CCc1nncn1CC(=O)N1CCN(c2sc(C(F)(F)F)nc2-c2cnc(C(F)(F)F)nc2)C[C@H]1C	1.19	–	> 60	logD [15]: 2.3
C[C@@H]1CN(c2sc(C(F)(F)F)nc2-c2cnc(C(F)(F)F)nc2)CCN1C(=O)Cn1cnc(C(C)(C)C)n1	0.24	–	7.5	–
CCc1nc(C)nn1CC(=O)N1CCN(c2sc(C(F)(F)F)nc2-c2cnc(C(F)(F)F)nc2)C[C@H]1C	0.68	–	12	–
Cc1ncn(CC(=O)N2CCN(c3sc(C(F)(F)F)nc3-c3cnc(C(F)(F)F)nc3)C[C@@H]2CO)n1	0.273	–	> 60	–
Cc1ccn(CC(=O)N2CCN(c3sc(C(F)(F)F)nc3-c3cnc(C(F)(F)F)nc3)C[C@@H]2CCO)n1	0.143	23	12	microsomal CLint at 1 µM (CYP2D6): 0.37 µL/min/mg; microsomal CLint at 1 µM (CYP3A4): 0.56 µL/min/mg
Cc1ncnn1CC(=O)N1CCN(c2sc(C(F)(F)F)nc2-c2cnc(C(F)(F)F)nc2)C[C@H]1C	0.477	–	16	–
C[C@@H]1CN(c2sc(C(F)(F)F)nc2-c2cnc(C(F)(F)F)nc2)CCN1C(=O)Cn1cnc(CO)n1	0.51	–	> 60	–
CCc1nc(C)n(CC(=O)N2CCN(c3sc(C(F)(F)F)nc3-c3cnc(C(F)(F)F)nc3)C[C@H]2C)n1	0.483	–	8.7	–
CCc1ncnn1CC(=O)N1CCN(c2sc(C(F)(F)F)nc2-c2cnc(C(F)(F)F)nc2)C[C@H]1C	1.19	–	13	logD [15]: 2.8

More lines, main results first:

IC50 [1] [µM]	microsomal CLint at 1 µM [3] [µL/min/mg]	SMILES	IC50 [2] [µM]	other results
0.0249	112	CCc1ccn(CC(=O)N2CCN(c3sc(C(F)(F)F)nc3-c3cnc(C(F)(F)F)nc3)C[C@H]2CCO)n1	2.9	–
0.0746	< 10	Cc1ccn(CC(=O)N2CCN(c3sc(C(F)(F)F)nc3-c3cnc(C(F)(F)F)nc3)C[C@@H]2CO)n1	21	microsomal CLint at 1 µM [4]: 16 µL/min/mg; fraction unbound at 6 h, 1 µM [5]: 0.11; CLH [6]: 2.4 µL/min/mg; fraction unbound at 6 h, 1 µM [7]: 0.22; dose excreted [8]: 1%; microsomal CLint at 1 µM (CYP2D6): 0.41 µL/min/mg; CLH [9]: 2.8 µL/min/mg; microsomal CLint at 1 µM [10]: 13 µL/min/mg; clearance [11]: 7.1 mL/min/kg; microsomal CLint at 1 µM (CYP3A4): 1.18 µL/min/mg; CL free [12]: 100 mL/min/kg; fraction unbound at 6 h, 1 µM [13]: 0.01; clearance [14]: 22 mL/min/kg; logD [15]: 3; CL free [16]: 710 mL/min/kg; CLH [17]: < 2 µL/min/mg
0.0532	< 10	Cc1ccn(CC(=O)N2CCN(c3sc(C(F)(F)F)nc3-c3cnc(C(F)(F)F)nc3)C[C@H]2CO)n1	13	microsomal CLint at 1 µM (CYP2D6): 0.41 µL/min/mg; microsomal CLint at 1 µM (CYP3A4): 0.72 µL/min/mg
0.128	–	CC(C)c1ncn(CC(=O)N2CCN(c3sc(C(F)(F)F)nc3-c3cnc(C(F)(F)F)nc3)C[C@H]2C)n1	7	CL/F [18]: 6.5 mL/min/kg; bioavailability [19]: > 100%; bioavailability [20]: ≥ 100%
0.0302	19	Cc1ccn(CC(=O)N2CCN(c3sc(C(F)(F)F)nc3-c3cnc(C(F)(F)F)nc3)C[C@H]2CCO)n1	5	–
0.0337	81	CCc1ccn(CC(=O)N2CCN(c3sc(C(F)(F)F)nc3-c3cnc(C(F)(F)F)nc3)C[C@H]2CO)n1	8.6	–
0.082	< 10	CCc1ncn(CC(=O)N2CCN(c3sc(C(F)(F)F)nc3-c3cnc(C(F)(F)F)nc3)C[C@@H]2CO)n1	> 60	microsomal CLint at 1 µM (CYP2D6): 0.13 µL/min/mg; microsomal CLint at 1 µM (CYP3A4): 0.27 µL/min/mg
0.117	–	CCc1ncn(CC(=O)N2CCN(c3sc(C(F)(F)F)nc3-c3cnc(C(F)(F)F)nc3)C[C@H]2C)n1	12	–
0.0449	< 10	CCc1ncn(CC(=O)N2CCN(c3sc(C(F)(F)F)nc3-c3cnc(C(F)(F)F)nc3)C[C@H]2CCO)n1	9.8	microsomal CLint at 1 µM [4]: < 10 µL/min/mg; dose excreted [21]: 37%; fraction unbound at 6 h, 1 µM [5]: 0.15; CLH [6]: < 2 µL/min/mg; fraction unbound at 6 h, 1 µM [7]: 0.3; CLH (Cytochrome P450 2D6): 0.09 µL/min/mg; CLH [9]: 3.2 µL/min/mg; microsomal CLint at 1 µM [10]: 13 µL/min/mg; clearance [11]: 14 mL/min/kg; microsomal CLint at 1 µM (CYP3A4): 0.33 µL/min/mg; CL free [12]: 64 mL/min/kg; fraction unbound at 6 h, 1 µM [13]: 0.045; clearance [14]: 19 mL/min/kg; logD [15]: 2.8; CL free [16]: 311 mL/min/kg; CLH [17]: < 2 µL/min/mg
0.063	22	CC(C)c1ncn(CC(=O)N2CCN(c3sc(C(F)(F)F)nc3-c3cnc(C(F)(F)F)nc3)C[C@H]2CCO)n1	5.8	–
0.0564	–	Cc1ccn(CC(=O)N2CCN(c3sc(C(F)(F)F)nc3-c3cnc(C(F)(F)F)nc3)C[C@H]2C)n1	5.1	logD [15]: 3.4
0.14	< 10	O=C(Cn1cnc(C2CC2)n1)N1CCN(c2sc(C(F)(F)F)nc2-c2cnc(C(F)(F)F)nc2)C[C@H]1CO	31	–
0.0591	12	O=C(Cn1cnc(C2CC2)n1)N1CCN(c2sc(C(F)(F)F)nc2-c2cnc(C(F)(F)F)nc2)C[C@H]1CCO	7.3	–
